Laboratory results from ChEMBL document CHEMBL1154899, “Synthesis and biological evaluation of caffeic acid 3,4-dihydroxyphenethyl ester” (J Nat Prod, 2010).

Key:
Format in all cases: functional
U-251 [1] = test: Antiproliferative activity against human U251 cells assessed as cell growth at 500 uM by SRB assay; settings: read-out: Activity
BT-549 [2] = test: Antiproliferative activity against human BT549 cells assessed as cell growth at 0.5 uM by SRB assay; settings: read-out: Activity
SK-MEL-28 [3] = test: Antiproliferative activity against human SK-MEL-28 cells assessed as cell growth at 500 uM by SRB assay; settings: read-out: Activity
[4] = Antiproliferative activity against human […] cells assessed as cell growth at 50 uM by SRB assay; settings: read-out: Activity
SK-MEL-28 [5] = test: Antiproliferative activity against human SK-MEL-28 cells assessed as cell growth at 50 uM by SRB assay; settings: read-out: Activity
SNB-19 = test: Antiproliferative activity against human SNB19 cells assessed as cell growth at 0.5 uM by SRB assay; settings: read-out: Activity
CCRF-CEM = test: Antiproliferative activity against human CCRF-CEM cells assessed as cell growth at 0.5 uM by SRB assay; settings: read-out: Activity
SK-MEL-2 = test: Antiproliferative activity against human SK-MEL-2 cells by SRB assay
HCT-15 = test: Antiproliferative activity against human HCT15 cells assessed as cell growth at 50 uM by SRB assay; settings: read-out: Activity
NCI-H23 = test: Antiproliferative activity against human NCI-H23 cells assessed as cell growth at 0.5 uM by SRB assay; settings: read-out: Activity
786-0 [6] = test: Antiproliferative activity against human 786-0 cells assessed as cell growth at 500 uM by SRB assay; settings: read-out: Activity
SF-295 = test: Antiproliferative activity against human SF295 cells assessed as cell growth at 5 uM by SRB assay; settings: read-out: Activity
OVCAR-4 [7] = test: Antiproliferative activity against human OVCAR4 cells assessed as cell growth at 5 uM by SRB assay; settings: read-out: Activity
LOX IMVI = test: Antiproliferative activity against human LOXIMVI cells by SRB assay
UO-31 = test: Antiproliferative activity against human UO31 cells by SRB assay
MOLT-4 = test: Antiproliferative activity against human MOLT4 cells assessed as cell growth at 50 uM by SRB assay; settings: read-out: Activity
UACC-257 [8] = test: Antiproliferative activity against human UACC257 cells assessed as cell growth at 0.5 uM by SRB assay; settings: read-out: Activity
ACHN = test: Antiproliferative activity against human ACHN cells assessed as cell growth at 500 uM by SRB assay; settings: read-out: Activity
SF-539 [9] = test: Antiproliferative activity against human SF539 cells assessed as cell growth at 50 uM by SRB assay; settings: read-out: Activity
HL-60(TB) = test: Antiproliferative activity against human HL-60(TB) cells assessed as cell growth at 0.5 uM by SRB assay; settings: read-out: Activity
UACC-257 [10] = test: Antiproliferative activity against human UACC257 cells assessed as cell growth at 5 uM by SRB assay; settings: read-out: Activity
DU-145 [11] = test: Antiproliferative activity against human DU145 cells assessed as cell growth at 500 uM by SRB assay; settings: read-out: Activity
MDA-MB-435 = test: Antiproliferative activity against human MDA-MB-435 cells by SRB assay
OVCAR-4 [12] = test: Antiproliferative activity against human OVCAR4 cells by SRB assay
HOP-62 = test: Antiproliferative activity against human HOP62 cells assessed as cell growth at 5 uM by SRB assay; settings: read-out: Activity
NCI-H460 = test: Antiproliferative activity against human NCI-H460 cells assessed as cell growth at 5 mM by SRB assay; settings: read-out: Activity
BT-549 [13] = test: Antiproliferative activity against human BT549 cells assessed as cell growth at 500 uM by SRB assay; settings: read-out: Activity
SW-620 = test: Antiproliferative activity against human SW620 cells assessed as cell growth at 0.5 uM by SRB assay; settings: read-out: Activity
SF-539 [14] = test: Antiproliferative activity against human SF539 cells assessed as cell growth at 0.5 uM by SRB assay; settings: read-out: Activity
HCT-116 = test: Antiproliferative activity against human HCT116 cells assessed as cell growth at 50 uM by SRB assay; settings: read-out: Activity
DU-145 [15] = test: Antiproliferative activity against human DU145 cells assessed as cell growth at 5 uM by SRB assay; settings: read-out: Activity
MDA-MB-231 = test: Antiproliferative activity against human MDA-MB-231 cells assessed as cell growth at 0.5 uM by SRB assay; settings: read-out: Activity
BT-549 [16] = test: Antiproliferative activity against human BT549 cells assessed as cell growth at 50 uM by SRB assay; settings: read-out: Activity
NCI/ADR-RES = test: Antiproliferative activity against human NCI/ADR-RES cells assessed as cell growth at 500 uM by SRB assay; settings: read-out: Activity
T47D = test: Antiproliferative activity against human T47D cells assessed as cell growth at 50 uM by SRB assay; settings: read-out: Activity
SN12C = test: Antiproliferative activity against human SN12C cells assessed as cell growth at 5 uM by SRB assay; settings: read-out: Activity
HOP-92 = test: Antiproliferative activity against human HOP92 cells assessed as cell growth at 50 uM by SRB assay; settings: read-out: Activity
TK-10 = test: Antiproliferative activity against human TK10 cells assessed as cell growth at 500 uM by SRB assay; settings: read-out: Activity
KM12 = test: Antiproliferative activity against human KM12 cells assessed as cell growth at 0.5 uM by SRB assay; settings: read-out: Activity
OVCAR-5 = test: Antiproliferative activity against human OVCAR5 cells at 5 mM by SRB assay
IGROV-1 = test: Antiproliferative activity against human IGROV1 cells assessed as cell growth at 50 uM by SRB assay; settings: read-out: Activity
786-0 [17] = test: Antiproliferative activity against human 786-0 cells by SRB assay
U-251 [18] = test: Antiproliferative activity against human U251 cells by SRB assay
[19] = read-out: LC50 (the source's name)
[20] = read-out: pLC50 (the source's name) (converted)

With `O=C(/C=C/c1ccc(O)c(O)c1)OCCc1ccc(O)c(O)c1` the growth at 500 µM (U-251 [1]) was 65%, the growth at 0.5 µM (BT-549 [2]) was 94% and the growth at 500 µM (SK-MEL-28 [3]) was 55%. The growth at 50 µM [4] was 54%, the growth at 50 µM (SK-MEL-28 [5]) was 93% and the growth at 0.5 µM (SNB-19) was 93%. It also gave a growth at 0.5 µM (CCRF-CEM) of 95%, a GI50 (SK-MEL-2; read-out: GI50) of 3.02 µM and a CC50 (SK-MEL-2; [19]) of over 50 µM. For the same compound, the TGI (SK-MEL-2; read-out: TGI) was 23.7 µM, the GI50 (SK-MEL-2; read-out: pGI50 (converted)) was 3.02 µM and the CC50 (SK-MEL-2; [20]) was over 50.1 µM. It also gave a TGI (SK-MEL-2; read-out: pTGI (converted)) of 23.4 µM, a growth at 50 µM (HCT-15) of 78% and a growth at 0.5 µM (NCI-H23) of 90%. It also gave a growth at 500 µM (786-0 [6]) of 81%, a growth at 5 µM (SF-295) of 89% and a growth at 5 µM (OVCAR-4 [7]) of 95%. It also gave a GI50 (LOX IMVI; read-out: GI50) of 6.38 µM, a CC50 (LOX IMVI; [19]) of over 50 µM and a TGI (LOX IMVI; read-out: TGI) of 35.1 µM. It also gave a GI50 (LOX IMVI; read-out: pGI50 (converted)) of 6.31 µM, a CC50 (LOX IMVI; [20]) of over 50.1 µM and a TGI (LOX IMVI; read-out: pTGI (converted)) of 35.5 µM. The GI50 (UO-31; read-out: GI50) was 1.75 µM, the CC50 (UO-31; [19]) was over 50 µM and the TGI (UO-31; read-out: TGI) was 21.1 µM. The GI50 (UO-31; read-out: pGI50 (converted)) was 1.66 µM, the CC50 (UO-31; [20]) was over 50.1 µM and the TGI (UO-31; read-out: pTGI (converted)) was 20.9 µM. It also gave a growth at 50 µM (MOLT-4) of 89%, a growth at 0.5 µM (UACC-257 [8]) of 93% and a growth at 500 µM (ACHN) of 38%. For the same compound, the growth at 50 µM (SF-539 [9]) was 89%, the growth at 0.5 µM (HL-60(TB)) was 94% and the growth at 5 µM (UACC-257 [10]) was 92%. The growth at 500 µM (DU-145 [11]) was 80%, the GI50 (MDA-MB-435; read-out: GI50) was 4.01 µM and the CC50 (MDA-MB-435; [19]) was over 50 µM. For the same compound, the TGI (MDA-MB-435; read-out: TGI) was over 50 µM, the GI50 (MDA-MB-435; read-out: pGI50 (converted)) was 3.98 µM and the CC50 (MDA-MB-435; [20]) was over 50.1 µM. For the same compound, the TGI (MDA-MB-435; read-out: pTGI) was over 50.1 µM, the GI50 (OVCAR-4 [12]) was 7.37 µM and the CC50 (OVCAR-4 [12]; [19]) was over 50 µM. The TGI (OVCAR-4 [12]; read-out: TGI) was over 50 µM, the CC50 (OVCAR-4 [12]; [20]) was over 50.1 µM and the TGI (OVCAR-4 [12]; read-out: pTGI) was over 50.1 µM. The growth at 5 µM (HOP-62) was 89%, the growth at 5000 µM (NCI-H460) was 1% and the growth at 500 µM (BT-549 [13]) was 60%. For the same compound, the growth at 0.5 µM (SW-620) was 98%, the growth at 0.5 µM (SF-539 [14]) was 90% and the growth at 50 µM (HCT-116) was 92%. The growth at 5 µM (DU-145 [15]) was 101%, the growth at 0.5 µM (MDA-MB-231) was 113% and the growth at 50 µM (BT-549 [16]) was 97%. It also gave a growth at 500 µM (NCI/ADR-RES) of 78%, a growth at 50 µM (T47D) of 93% and a growth at 5 µM (SN12C) of 80%. It also gave a growth at 50 µM (HOP-92) of 55%, a growth at 500 µM (TK-10) of 81% and a growth at 0.5 µM (KM12) of 97%. For the same compound, the Activity (OVCAR-5) was 51%, the growth at 50 µM (IGROV-1) was 98% and the GI50 (786-0 [17]; read-out: GI50) was 13.5 µM. It also gave a CC50 (786-0 [17]; [19]) of over 50 µM, a TGI (786-0 [17]; read-out: TGI) of over 50 µM and a GI50 (786-0 [17]; read-out: pGI50 (converted)) of 13.5 µM. For the same compound, the CC50 (786-0 [17]; [20]) was over 50.1 µM, the TGI (786-0 [17]; read-out: pTGI) was over 50.1 µM and the GI50 (U-251 [18]; read-out: GI50) was 8.86 µM. The CC50 (U-251 [18]; [19]) was over 50 µM, the TGI (U-251 [18]; read-out: TGI) was over 50 µM and the GI50 (U-251 [18]; read-out: pGI50 (converted)) was 8.71 µM. It also gave a CC50 (U-251 [18]; [20]) of over 50.1 µM and a TGI (U-251 [18]; read-out: pTGI) of over 50.1 µM.
